Starred links: 1 amine or outer side, 2 acyl side, 3 side chain; linkers in the order of their positions; H or OH if unused. Positions of bridges follow the written chain, without caps; N, C: chain ends. Residues, ends and D or L forms follow the SMILES beside them. *: point of attachment. C18 diacid = O=C(O)CCCCCCCCCCCCCCCCC(=O)*; γGlu = O=C(O)[C@H](CCC(=O)[*:2])N[*:1]; AEEA = NCCOCCOCC(=O)O
Assay: Thioflavin T (ThT) assay: lagtime and peptide recovery
Type: physicochemical
Conditions: ThT assay, pH 6.5, 37° C.; assay terminated after 45 hours
From the text: The ThT assay was used to evaluate physical stability of the CNP compounds and their suitability for liquid formulation. Low physical stability of peptides may lead to amyloid fibril formation, which is observed as well-ordered, thread-like macromolecular structures in the sample eventually resulting in gel formation. This has traditionally been tested by visual inspection of the sample. However, that kind of measurement is very subjective and depending on the observer. Therefore, the application of a small molecule indicator probe is much more advantageous. Thioflavin T (ThT) is such a probe and has a distinct fluorescence signature when binding to fibrils [Naiki et al. (1989) Anal. Biochem. 177, 244-249; LeVine (1999) Methods. Enzymol. […], 274-284].
Procedure: Thioflavin T was added to the supernatant samples from Example 5 (pH 4.0 and 6.5) using an aqueous ThT stock solution to a final concentration of about 1 μM in the samples. Sample aliquots of 150 μL were placed in a 96 well microtiter plate (Packard OptiPlate™-96, white polystyrene). Usually, two to three replicas of each sample were applied to the plate. The plate was sealed and placed in a fluorescence plate reader (Fluoroskan Ascent FL) and incubated at 37° C. with orbital shaking (960 rpm; 1 mm amplitude). Fluorescence measurements were performed every 20 minutes using excitation through a 444 nm filter and measurement of emission through a 485 nm filter. Between each measurement, the plate was shaken and heated as described above and the assay was terminated after 45 hours. Fluorescence measurements for each microtiter plate well were plotted against time and the lag-time (time until an increase in ThT fluorescence was observed) was estimated.
To assess loss of dissolved peptide following 45h incubation, peptide recovery was measured as the ratio between total peak area after incubation vs. before incubation using the RP-UPLC method described below.
Measurement of LagTime and Peptide recovery % using RP-UPLC: RP-UPLC was conducted using an Acquity UPLC BEH C18 1.7 μm (2.1×30 mm) Waters column (Eluent A: 0.1% v/v % TFA in water; Eluent B: 0.1% v/v TFA in acetonitrile/water 4:1) with gradient elution (0 min: 95% A; 2 min: 20% A; 2.3 min: 20% A; 2.4 min: 95% A; 9 min: 95% A) in a flow rate of 0.9 mL/min and a column temperature of 30° C. UV-detection at 215 nm was used to assess the total peptide area.
Samples at pH 4.0 were prepared as described in Example 5 and subjected to the ThT assay as described above.
Samples at pH 6.5 were prepared as described in Example 5 and subjected to the ThT assay as described above.

| SMILES | LagTime (h) at pH 6.5 |
| --- | --- |
| CC[C@H](C)[C@@H]1NC(=O)[C@H](CCCNC(=N)N)NC(=O)[C@H](CC(=O)O)NC(=O)[C@H](CC(C)C)NC(=O)[C@@H]2CCCN2C(=O)[C@H](CC(C)C)NC(=O)CNC(=O)[C@H](Cc2ccccc2)NC(=O)[C@@H](NC(=O)CNC(=O)[C@H](CO)NC(=O)[C@H](CO)NC(=O)[C@@H](NC(=O)CNC(=O)[C@@H](NC(=O)[C@H](CCCCN)NC(=O)[C@H](CCC(N)=O)NC(=O)[C@H](C)NC(=O)CNC(=O)[C@H](Cc2c[nH]cn2)NC(=O)[C@H](Cc2ccc(O)cc2)NC(=O)COCCOCCNC(=O)COCCOCCNC(=O)CC[C@H](NC(=O)CCCCCCCCCCCCCCCCC(=O)O)C(=O)O)[C@@H](C)O)C(C)C)CSSC[C@@H](C(=O)O)NC(=O)CNC(=O)[C@H](CC(C)C)NC(=O)CNC(=O)[C@H](CO)NC(=O)[C@H](CC(C)C)NC(=O)[C@H](CO)NC(=O)CNC1=O [compound 1303] ({C18 diacid-γGlu-AEEA-AEEA}-YHGAQKTGVSSGCFGLPLDRIGSLSGLGC-OH; disulfide 13-29) | 5 h |
| CC[C@H](C)[C@@H]1NC(=O)[C@H](CCCNC(=N)N)NC(=O)[C@H](CC(=O)O)NC(=O)[C@H](CC(C)C)NC(=O)[C@@H]2CCCN2C(=O)[C@H](CC(C)C)NC(=O)CNC(=O)[C@H](Cc2ccccc2)NC(=O)[C@@H](NC(=O)CNC(=O)[C@H](CO)NC(=O)[C@H](CO)NC(=O)[C@H](CC(C)C)NC(=O)CNC(=O)[C@@H](NC(=O)[C@H](Cc2c[nH]cn2)NC(=O)[C@H](CCC(N)=O)NC(=O)[C@H](C)NC(=O)CNC(=O)[C@H](Cc2c[nH]cn2)NC(=O)[C@H](Cc2ccc(O)cc2)NC(=O)COCCOCCNC(=O)COCCOCCNC(=O)CC[C@H](NC(=O)CCCCCCCCCCCCCCCCC(=O)O)C(=O)O)[C@@H](C)O)CSSC[C@@H](C(=O)O)NC(=O)CNC(=O)[C@H](CC(C)C)NC(=O)CNC(=O)[C@H](CO)NC(=O)[C@H](CC(C)C)NC(=O)[C@H](CO)NC(=O)CNC1=O [compound 1304] ({C18 diacid-γGlu-AEEA-AEEA}-YHGAQHTGLSSGCFGLPLDRIGSLSGLGC-OH; disulfide 13-29) | 45 h |
| CC[C@H](C)[C@@H]1NC(=O)[C@H](CCCNC(=N)N)NC(=O)[C@H](CC(=O)O)NC(=O)[C@H](CC(C)C)NC(=O)[C@@H]2CCCN2C(=O)[C@H](CC(C)C)NC(=O)CNC(=O)[C@H](Cc2ccccc2)NC(=O)[C@@H](NC(=O)CNC(=O)[C@H](CO)NC(=O)[C@H](CO)NC(=O)[C@H](CC(C)C)NC(=O)CNC(=O)[C@H](CCCCN)NC(=O)[C@H](CCCCN)NC(=O)[C@H](CCC(N)=O)NC(=O)[C@H](C)NC(=O)CNC(=O)[C@H](Cc2c[nH]cn2)NC(=O)[C@H](CCC(=O)O)NC(=O)COCCOCCNC(=O)COCCOCCNC(=O)CC[C@H](NC(=O)CCCCCCCCCCCCCCCCC(=O)O)C(=O)O)CSSC[C@@H](C(=O)O)NC(=O)CNC(=O)[C@H](CC(C)C)NC(=O)CNC(=O)[C@H](CO)NC(=O)[C@H](CC(C)C)NC(=O)[C@H](CO)NC(=O)CNC1=O [compound 1310] ({C18 diacid-γGlu-AEEA-AEEA}-EHGAQKKGLSSGCFGLPLDRIGSLSGLGC-OH; disulfide 13-29) | 45 h |
| CC[C@H](C)[C@@H]1NC(=O)[C@H](CCCNC(=N)N)NC(=O)[C@H](CC(=O)O)NC(=O)[C@H](CC(C)C)NC(=O)[C@@H]2CCCN2C(=O)[C@H](CC(C)C)NC(=O)CNC(=O)[C@H](Cc2ccccc2)NC(=O)[C@@H](NC(=O)CNC(=O)[C@H](CCC(N)=O)NC(=O)[C@H](CO)NC(=O)[C@H](CC(C)C)NC(=O)CNC(=O)[C@H](CCCCN)NC(=O)[C@H](CCCCN)NC(=O)[C@H](CCC(N)=O)NC(=O)[C@H](C)NC(=O)CNC(=O)[C@H](CCCCN)NC(=O)[C@H](Cc2ccc(O)cc2)NC(=O)[C@H](CCCCN)NC(=O)[C@H](Cc2c[nH]cn2)NC(=O)[C@H](C)NC(=O)[C@H](CCC(N)=O)NC(=O)[C@@H]2CCCN2C(=O)[C@H](Cc2c[nH]cn2)NC(=O)[C@H](CCC(=O)O)NC(=O)[C@H](CCC(N)=O)NC(=O)COCCOCCNC(=O)COCCOCCNC(=O)CC[C@H](NC(=O)CC[C@H](NC(=O)CC[C@H](NC(=O)CCCCCCCCCCCCCCCCC(=O)O)C(=O)O)C(=O)O)C(=O)O)CSSC[C@@H](C(=O)O)NC(=O)CNC(=O)[C@H](CC(C)C)NC(=O)CNC(=O)[C@H](CO)NC(=O)[C@H](CC(C)C)NC(=O)[C@H](CO)NC(=O)CNC1=O [compound 1382] ({C18 diacid-γGlu-γGlu-γGlu-AEEA-AEEA}-QEHPQAHKYKGAQKKGLSQGCFGLPLDRIGSLSGLGC-OH; disulfide 21-37) | 45 h |
| CC[C@H](C)[C@@H]1NC(=O)[C@H](CCCNC(=N)N)NC(=O)[C@H](CC(=O)O)NC(=O)[C@H](CC(C)C)NC(=O)[C@@H]2CCCN2C(=O)[C@H](CC(C)C)NC(=O)CNC(=O)[C@H](Cc2ccccc2)NC(=O)[C@@H](NC(=O)CNC(=O)[C@H](CCC(N)=O)NC(=O)[C@H](CO)NC(=O)[C@H](CC(C)C)NC(=O)CNC(=O)[C@H](CCCCN)NC(=O)[C@H](CCCCN)NC(=O)[C@H](CCC(N)=O)NC(=O)[C@H](C)NC(=O)CNC(=O)[C@H](CCCCN)NC(=O)[C@H](Cc2ccc(O)cc2)NC(=O)[C@H](CCCCN)NC(=O)[C@H](CCCNC(=N)N)NC(=O)[C@H](C)NC(=O)[C@H](CCC(N)=O)NC(=O)[C@@H]2CCCN2C(=O)[C@H](Cc2c[nH]cn2)NC(=O)[C@H](CCC(=O)O)NC(=O)[C@H](CCC(N)=O)NC(=O)COCCOCCNC(=O)COCCOCCNC(=O)CC[C@H](NC(=O)CC[C@H](NC(=O)CC[C@H](NC(=O)CC[C@H](NC(=O)CC[C@H](NC(=O)CC[C@H](NC(=O)CCCCCCCCCCCCCCCCC(=O)O)C(=O)O)C(=O)O)C(=O)O)C(=O)O)C(=O)O)C(=O)O)CSSC[C@@H](C(=O)O)NC(=O)CNC(=O)[C@H](CC(C)C)NC(=O)CNC(=O)[C@H](CO)NC(=O)[C@H](CC(C)C)NC(=O)[C@H](CO)NC(=O)CNC1=O [compound 1402] ({C18 diacid-γGlu-γGlu-γGlu-γGlu-γGlu-γGlu-AEEA-AEEA}-QEHPQARKYKGAQKKGLSQGCFGLPLDRIGSLSGLGC-OH; disulfide 21-37) | 45 h |
| CC[C@H](C)[C@@H]1NC(=O)[C@H](CCCNC(=N)N)NC(=O)[C@H](CC(=O)O)NC(=O)[C@H](CC(C)C)NC(=O)[C@@H]2CCCN2C(=O)[C@H](CC(C)C)NC(=O)CNC(=O)[C@H](Cc2ccccc2)NC(=O)[C@@H](NC(=O)CNC(=O)[C@H](CCC(N)=O)NC(=O)[C@H](CO)NC(=O)[C@H](CC(C)C)NC(=O)CNC(=O)[C@H](CCCCN)NC(=O)[C@H](CCCCN)NC(=O)[C@H](CCC(N)=O)NC(=O)[C@H](C)NC(=O)CNC(=O)[C@H](CCCCN)NC(=O)[C@H](Cc2ccc(O)cc2)NC(=O)[C@H](CCCCN)NC(=O)[C@H](CCCNC(=N)N)NC(=O)[C@H](C)NC(=O)[C@H](CCC(N)=O)NC(=O)[C@@H]2CCCN2C(=O)[C@H](Cc2c[nH]cn2)NC(=O)[C@H](CCC(=O)O)NC(=O)[C@H](CCC(N)=O)NC(=O)COCCOCCNC(=O)COCCOCCNC(=O)COCCOCCNC(=O)COCCOCCNC(=O)CC[C@H](NC(=O)CC[C@H](NC(=O)CC[C@H](NC(=O)CC[C@H](NC(=O)CC[C@H](NC(=O)CC[C@H](NC(=O)CCCCCCCCCCCCCCCCC(=O)O)C(=O)O)C(=O)O)C(=O)O)C(=O)O)C(=O)O)C(=O)O)CSSC[C@@H](C(=O)O)NC(=O)CNC(=O)[C@H](CC(C)C)NC(=O)CNC(=O)[C@H](CO)NC(=O)[C@H](CC(C)C)NC(=O)[C@H](CO)NC(=O)CNC1=O [compound 1404] ({C18 diacid-γGlu-γGlu-γGlu-γGlu-γGlu-γGlu-AEEA-AEEA-AEEA-AEEA}-QEHPQARKYKGAQKKGLSQGCFGLPLDRIGSLSGLGC-OH; disulfide 21-37) | 45 h |

— patent publication US20240209028A1, “CNP COMPOUNDS” (priority 2022, published 2024)
